What was measured:
Type in all cases: cell-based
[1] = biological target: T1, m5 muscarinic receptor subtype (Homo sapiens, UniProt P08912); assay: R-SAT assay, muscarinic receptor subtype m5; settings: transfected NIH-3T3 cells, 5 days; for m5 % Eff: relative to maximum response to carbachol
T1 construct: expressed in transfected cells; host or cells: NIH-3T3 (ATCC CRL 1658)
T1 sequence (P08912 1-532): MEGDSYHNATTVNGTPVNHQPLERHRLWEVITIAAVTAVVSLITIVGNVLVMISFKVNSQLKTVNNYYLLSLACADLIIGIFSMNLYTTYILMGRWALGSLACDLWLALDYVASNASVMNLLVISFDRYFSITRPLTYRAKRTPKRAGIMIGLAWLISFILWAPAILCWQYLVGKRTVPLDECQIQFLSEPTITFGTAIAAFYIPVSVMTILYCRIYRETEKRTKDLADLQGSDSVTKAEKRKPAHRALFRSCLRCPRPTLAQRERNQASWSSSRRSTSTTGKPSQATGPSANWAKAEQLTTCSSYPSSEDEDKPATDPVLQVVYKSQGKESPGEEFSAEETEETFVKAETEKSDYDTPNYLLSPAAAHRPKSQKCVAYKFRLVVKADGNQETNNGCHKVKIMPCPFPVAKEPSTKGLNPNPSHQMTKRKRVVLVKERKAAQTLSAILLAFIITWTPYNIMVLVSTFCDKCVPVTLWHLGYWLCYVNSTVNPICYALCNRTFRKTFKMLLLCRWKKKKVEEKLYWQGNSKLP
Method: (§1) Screening Of Test Compounds In An Assay Using Muscarinic Receptor Subtypes m1, m2, m3, m4 and m5. The m1, m2, m3, m4 and m5 muscarinic receptor subtypes were cloned substantially as described by Bonner et al., Science […] and Bonner et al., Neuron 1:403 (1988). R-SAT assays were carried out substantially as described in U.S. Pat. Nos. 5,707,798, 5,912,132, and 5,955,281, and by Braüner-Osborne & Brann, Eur. J. Pharmacol. 295:93 (1995). NIH-3T3 cells (available from the American Type Culture Collection as ATCC CRL 1658) were transfected with plasmid DNA encoding the m1, m2, m3, m4 or m5 receptors and plasmid DNA encoding β-galactosidase. Transfected cells were grown in the presence of between 1 nM and 40 μM of the test compound for 5 days. On day 5, the cells were lysed using 0.5% Nonidet-P and β-galactosidase expression was quantified using the chromogenic substrate o-nitrophenyl-β-D-galactoside (ONGP).
(§2) Data were normalized relative to the maximum response of the cells to the muscarinic agonist carbachol, and the following equation was fitted to the data: • response=minimum+(maximum−minimum)/(1+(EC50/[ligand])) • Where [ligand]=ligand concentration. • % Efficacy was defined as: • (maximum−minimum)/(maximum response of cells to carbachol). • pEC50=−log (EC50). • Where data gave a bell-shaped curve, “maximum” was defined as the highest observed response.

[2] = biological target: T2, m1 muscarinic receptor subtype (Homo sapiens, UniProt P11229); assay: R-SAT assay, muscarinic receptor subtype m1; settings: transfected NIH-3T3 cells, 5 days; for EC50: read-out: m1 pEC50 (converted); for m1 % Eff: relative to maximum response to carbachol
T2 construct: expressed in transfected cells; host or cells: NIH-3T3 (ATCC CRL 1658)
T2 sequence (P11229 1-460): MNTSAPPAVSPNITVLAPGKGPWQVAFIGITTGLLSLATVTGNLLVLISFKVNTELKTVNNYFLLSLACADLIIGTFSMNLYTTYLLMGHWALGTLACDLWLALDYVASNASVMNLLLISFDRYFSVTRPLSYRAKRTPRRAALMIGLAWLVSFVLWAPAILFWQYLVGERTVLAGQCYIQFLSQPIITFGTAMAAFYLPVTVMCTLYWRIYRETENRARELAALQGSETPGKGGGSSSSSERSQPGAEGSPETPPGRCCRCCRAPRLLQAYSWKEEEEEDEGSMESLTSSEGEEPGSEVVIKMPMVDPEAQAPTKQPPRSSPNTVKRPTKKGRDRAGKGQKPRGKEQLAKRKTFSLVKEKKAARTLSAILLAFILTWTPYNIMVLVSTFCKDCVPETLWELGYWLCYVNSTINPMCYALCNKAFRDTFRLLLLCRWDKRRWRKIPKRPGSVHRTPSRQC
Method: (§3) Transfected cells were grown in the presence of between 1 nM and 40 μM of the test compound for 5 days. On day 5, the cells were lysed using 0.5% Nonidet-P and β-galactosidase expression was quantified using the chromogenic substrate o-nitrophenyl-β-D-galactoside (ONGP).
as §2

[3] = biological target: T3, m4 muscarinic receptor subtype (Homo sapiens, UniProt P08173); assay: R-SAT assay, muscarinic receptor subtype m4; settings: transfected NIH-3T3 cells, 5 days; for EC50: read-out: m4 pEC50 (converted); for m4 % Eff: relative to maximum response to carbachol
T3 construct: expressed in transfected cells; host or cells: NIH-3T3 (ATCC CRL 1658)
T3 sequence (P08173 1-479): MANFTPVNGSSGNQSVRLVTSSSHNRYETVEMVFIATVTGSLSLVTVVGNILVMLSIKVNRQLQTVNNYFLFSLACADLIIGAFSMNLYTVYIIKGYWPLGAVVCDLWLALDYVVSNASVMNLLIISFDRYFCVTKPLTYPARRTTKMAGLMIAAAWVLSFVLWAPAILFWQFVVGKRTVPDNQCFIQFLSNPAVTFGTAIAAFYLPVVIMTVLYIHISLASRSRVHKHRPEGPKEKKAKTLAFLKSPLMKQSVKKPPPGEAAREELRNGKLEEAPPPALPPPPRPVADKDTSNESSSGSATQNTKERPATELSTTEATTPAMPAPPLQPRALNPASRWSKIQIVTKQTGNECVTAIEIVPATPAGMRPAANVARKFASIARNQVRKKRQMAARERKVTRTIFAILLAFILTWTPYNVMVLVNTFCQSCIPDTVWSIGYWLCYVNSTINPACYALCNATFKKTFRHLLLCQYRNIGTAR
Method: as §3, §2

[4] = biological target: T4, m2 muscarinic receptor subtype (Homo sapiens, UniProt P08172); assay: R-SAT assay, muscarinic receptor subtype m2; settings: transfected NIH-3T3 cells, 5 days, relative to maximum response to carbachol
T4 construct: expressed in transfected cells; host or cells: NIH-3T3 (ATCC CRL 1658)
T4 sequence (P08172 1-466): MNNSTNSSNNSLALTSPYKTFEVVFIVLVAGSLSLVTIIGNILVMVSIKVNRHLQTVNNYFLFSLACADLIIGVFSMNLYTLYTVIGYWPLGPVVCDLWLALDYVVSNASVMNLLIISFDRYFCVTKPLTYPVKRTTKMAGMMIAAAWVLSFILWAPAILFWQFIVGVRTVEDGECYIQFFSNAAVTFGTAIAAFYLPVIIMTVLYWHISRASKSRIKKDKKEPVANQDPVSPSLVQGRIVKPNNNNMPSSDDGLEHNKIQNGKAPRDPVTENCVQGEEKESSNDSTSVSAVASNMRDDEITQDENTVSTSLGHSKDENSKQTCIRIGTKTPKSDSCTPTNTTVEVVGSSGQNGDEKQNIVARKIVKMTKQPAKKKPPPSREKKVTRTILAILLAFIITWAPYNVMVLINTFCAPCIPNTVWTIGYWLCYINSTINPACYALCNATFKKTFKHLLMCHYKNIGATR
Method: as §1, §2

[5] = biological target: T5, m3 muscarinic receptor subtype (Homo sapiens, UniProt P20309); assay: R-SAT assay, muscarinic receptor subtype m3; settings: transfected NIH-3T3 cells, 5 days, relative to maximum response to carbachol
T5 construct: expressed in transfected cells; host or cells: NIH-3T3 (ATCC CRL 1658)
T5 sequence (P20309 whole entry): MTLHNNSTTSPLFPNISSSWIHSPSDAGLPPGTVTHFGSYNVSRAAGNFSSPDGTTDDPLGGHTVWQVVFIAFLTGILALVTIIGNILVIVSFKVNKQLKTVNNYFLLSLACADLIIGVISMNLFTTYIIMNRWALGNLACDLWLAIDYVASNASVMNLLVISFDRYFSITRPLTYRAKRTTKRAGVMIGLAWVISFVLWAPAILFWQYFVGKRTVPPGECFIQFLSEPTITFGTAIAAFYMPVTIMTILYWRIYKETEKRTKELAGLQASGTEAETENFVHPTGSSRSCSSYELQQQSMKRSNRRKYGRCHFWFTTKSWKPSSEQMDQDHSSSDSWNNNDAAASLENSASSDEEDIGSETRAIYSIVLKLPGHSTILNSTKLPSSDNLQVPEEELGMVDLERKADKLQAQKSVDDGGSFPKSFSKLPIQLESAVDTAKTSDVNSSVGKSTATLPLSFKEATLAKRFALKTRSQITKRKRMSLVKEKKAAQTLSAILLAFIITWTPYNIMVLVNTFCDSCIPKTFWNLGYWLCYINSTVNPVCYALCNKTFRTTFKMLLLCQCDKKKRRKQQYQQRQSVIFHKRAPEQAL
Method: as §1, §2

Compound: CCCC1CCN(CCCn2ncc3ccccc32)CC1 [Example 41, 1-(3-(4-Propylpiperidine)-1-yl-propyl)-1H-indazole]
- EC50 ([1]; read-out: m5 pEC50 (converted)): > 3160 nM
- m5 % Eff [1]: 31%
- EC50 [2]: 126 nM
- m1 % Eff [2]: 81%
- EC50 [3]: 631 nM
- m4 % Eff [3]: 69%
- m2 % Eff [4]: no response (No response: Efficacy <25% maximum response of carbachol. This level of activity is not considered significantly different to no response.)
- m3 % Eff [5]: no response (No response: Efficacy <25% maximum response of carbachol. This level of activity is not considered significantly different to no response.)

Compound: 1-[3-(4-Butyl-piperidin-1-yl)-propyl]-5,6-dimethyl-1H-benzoimidazole [Example 81]
- m1 pEC50 [2]: 6.4
- m1 % Eff [2]: 72%
- m4 pEC50 [3]: <5.5
- m4 % Eff [3]: 77%

Compound: 2-[3-(4-Butylpiperidin-1-yl)-propyl]-1-methyl-1H-benzimidazole [Example 73]
- m1 pEC50 [2]: 6.2
- m1 % Eff [2]: 37%
- m4 % Eff [3]: no response (No response: Efficacy <25% maximum response of carbachol. This level of activity is not considered significantly different to no response.)

Compound: CCCCC1CCN(CCCn2ccc3ccccc32)CC1 [Example 12, 1-(3-(4-n-Butylpiperidine)-1-yl-propyl)-1H-indole]
- m5 % Eff [1]: no response (No response: Efficacy <25% maximum response of carbachol. This level of activity is not considered significantly different to no response.)
- m1 pEC50 [2]: 5.9
- m1 % Eff [2]: 59%
- m2 % Eff [4]: no response (No response: Efficacy <25% maximum response of carbachol. This level of activity is not considered significantly different to no response.)
- m3 % Eff [5]: no response (No response: Efficacy <25% maximum response of carbachol. This level of activity is not considered significantly different to no response.)

Compound: CCCCC1CCN(CCCn2c(C)cc3ccccc32)CC1 [Example 77, 1-[3-(4-Butyl-piperidin-1-yl)-propyl]-2-methyl-1H-indole]
- m1 pEC50 [2]: 7.0
- m1 % Eff [2]: 71%
- m4 pEC50 [3]: 6.3
- m4 % Eff [3]: 96%

Compound: CCCCC1CCN(CCCc2nc3c([N+](=O)[O-])cccc3[nH]2)CC1 [Example 28, 4-Nitro-2-(3-(4-n-butylpiperidine)-1-yl-propyl)-1H-benzoimidazole]
- m5 % Eff [1]: no response (No response: Efficacy <25% maximum response of carbachol. This level of activity is not considered significantly different to no response.)
- m1 pEC50 [2]: 6.5
- m1 % Eff [2]: 38%
- m4 % Eff [3]: no response (No response: Efficacy <25% maximum response of carbachol. This level of activity is not considered significantly different to no response.)
- m3 % Eff [5]: no response (No response: Efficacy <25% maximum response of carbachol. This level of activity is not considered significantly different to no response.)

Compound: CCCCC=C1CCN(CCCn2ncc3ccccc32)CC1 [Example 43, 1-(3-(4-Pentylidene-piperidine)-1-yl-propyl)-1H-indazole]
- m5 % Eff [1]: no response (No response: Efficacy <25% maximum response of carbachol. This level of activity is not considered significantly different to no response.)
- EC50 [2]: 501 nM
- m1 % Eff [2]: 66%
- EC50 [3]: 1000 nM
- m4 % Eff [3]: 30%

Compound: CC(C)CCC1CCN(CCCn2ncc3ccccc32)CC1 [Example 42, 1-(3-(4-(3-Methyl-butyl)-piperidine)-1-yl-propyl)-1H-indazole]
- m1 pEC50 [2]: 7.1
- m1 % Eff [2]: 51%

Compound: CCCCC1CCN(CCCn2nc(Cl)c3ccccc32)CC1 [Example 65, 1-[3-(4-Butylpiperidin-1-yl)-propyl]-3-chloro-1H-indazole]
- m1 pEC50 [2]: 6.0
- m1 % Eff [2]: 45%
- m4 pEC50 [3]: <5.5
- m4 % Eff [3]: 34%
- m2 % Eff [4]: no response (No response: Efficacy <25% maximum response of carbachol. This level of activity is not considered significantly different to no response.)

Compound: CCC=C1CCN(CCCn2ncc3ccccc32)CC1 [Example 44, 1-(3-(4-Propylidene-piperidine)-1-yl-propyl)-1H-indazole]
- m1 pEC50 [2]: 6.1
- m1 % Eff [2]: 72%

— patent US20070155795A1, “MUSCARINIC AGONISTS” (ACADIA Pharmaceuticals Inc., priority 2000, published 2007)
